Tests used:
DENV 2 [1] = assay: Level of DENV 2 infection by flow cytometry (HEK293T/17 cells); format: cell-based, dengue virus; details: for level of infection: HEK293T/17, vs 0.01% DMSO control; for level of infection, treatment at 6 and 12 h post-infection: read at 24 h.p.i.
Procedure: (§1) HEK293T/17 cells were cultured on 6-well plates until 70% confluence was reached under standard conditions. The cells were mock-infected or infected with DENV 2 at a multiplicity (MOI) of 5 for 2 h. After infection, the medium was removed and the infected cells were incubated with appropriate concentrations of the VDR agonists until 24 h.p.i., in parallel with DMSO treated control cells. Experiments were performed independently triplicate.
(§2) For time course experiments, under conditions of pre-infection treatment, HEK293T/17 cells were pre-treated with an appropriate concentration of VDR agonists for 1, 3 or 6 h before infection, followed by incubation in complete medium. For treatment post-infection, infected cells were treated with VDR agonists at 0, 1, 3, 6 and 12 h.p.i. The infected cells and supernatant for both pre- and post-treated samples were collected at 24 h.p.i. Experiments were performed independently triplicate.
HEK293T/17 cells were mock-infected or infected with DENV 2 at MOI 5 for 2 h, followed by treatment with the appropriate concentration of VDR agonists. At 24 hpi, the treated cells were harvested and Fc receptors were blocked with 10% goat serum (Gibco BRL, Gaithersburg, MD) for 30 min at 4 °C. The cells were washed with 1% BSA in 1X PBS/IFA (150 mM NaCl, 50 mM NaH2PO4, 50 m M Na2HPO4, pH to 7.4) and centrifuged at 6,000 g for 5 min. Then, the cells were fixed with 4% paraformaldehyde in 1X PBS/IFA at room temperature in the dark for 20 min, followed by the washing. Cell membrane permeabilization was performed using 0.2%Triton-X in 1X PBS/IFA for 10 min in the dark followed by overnight incubation with a 1:150 dilution of a pan-specific mouse monoclonal anti-dengue E protein antibody (HB114[44]). Cells were subsequently incubated for 1 h in the dark with a 1:40 dilution of a fluorescein isothiocyanate (FITC)-conjugated goat anti-mouse IgG antibody (KPL, Guilford, UK) with washing between each step 1% BSA/PBS-IFA. Finally, the cells were analyzed by flow cytometry on a BD FACSCalibur cytometer (Becton Dickinson, BD Biosciences, San Jose, CA) using the CELLQuest software. All experiments were performed independently in triplicate.

DENV 2 [2] = assay: DENV 2 virus titer in supernatant by standard plaque assay (infected HEK293T/17 cells); format: cell-based, dengue virus; details: for EC50: HEK293T/17 cells, DENV 2 MOI 5, post-infection treatment, virus titer at 24 h by plaque assay; for virus titer, treatment at 6 and 12 h post-infection: read at 24 h.p.i.
Procedure: Human embryonic kidney HEK293T/17 (ATCC No. CRL-11268) and human hepatocellular HepG2 (ATCC No. HB-8065) cells were cultured in complete medium, composed of Dulbecco’s modified Eagle medium (DMEM; Gibco BRL) supplemented with 10% heat-inactivated fetal bovine serum (FBS) at 37 °C with 5% CO2. Dengue virus serotype 2 (DENV 2) strain 16681, DENV 1 (strain 16007), DENV 3 (strain 16562), DENV 4 (strain 1036), ZIKV (strain SV0010/15) and JEV (strain BJ1) were all propagated in the Aedes albopictus cell line C6/36 (ATCC No. CRL-1660). Viral progenies in the supernatant were collected and centrifuged at 1,000g to remove cell debris. The virus stocks were kept at − 80 °C until used. Virus titers were determined by standard plaque assay on LLC-MK2 cells (ATCC No. CCL-7).
as §1, §2

DENV 2 [3] = assay: Level of DENV 2 infection in HepG2 cells by flow cytometry; format: cell-based, dengue virus; details: 10 μM, 24 h, DENV 2 MOI 5
Procedure: Given that HEK293T/17 cells are not representative of a DENV target tissue, the antiviral activity of the VDR agonists was evaluated in cells representative of a primary target cell. For this reason, HepG2 cells were infected with DENV 2, followed by treatment with 10 μM of the five effective VDR agonists (ZD-1, ZD-2, ZD-3, ZD-5, and ZD-6) for 24 h, after which the level of infection was determined by flow cytometry.
Figure 5 Antiviral activity of VDR agonists against DENV infection on HepG2 cells. HepG2 cells were mock-infected or infected with DENV 2 at MOI 5 for 2 h, followed by the treatment with 10 μM of ZD-1, ZD-2, ZD-3, ZD-5 and ZD-6 for 24 h.p.i. The treated cells were collected and level of infection determined by flow cytometry. p value; *< 0.05, **< 0.01, ***< 0.001 for significance. The experiment was performed independently in triplicate.
HEK293T/17 cells were mock-infected or infected with DENV 2 at MOI 5 for 2 h, followed by treatment with the appropriate concentration of VDR agonists. At 24 hpi, the treated cells were harvested and Fc receptors were blocked with 10% goat serum (Gibco BRL, Gaithersburg, MD) for 30 min at 4 °C. […] Finally, the cells were analyzed by flow cytometry on a BD FACSCalibur cytometer (Becton Dickinson, BD Biosciences, San Jose, CA) using the CELLQuest software. […]

CYP27B1 = assay: VDR-regulated gene expression by qRT-PCR, CYP27B1; format: cell-based, human; details: 20 µM, 24 h, HEK293T/17, vs actin and 0.02% DMSO
Procedure: (§3) HEK293T/17 cells were incubated with either 10 µM of VDR agonists or 20 μM of commercial VDR agonist EB1089 (Tocris Cookson Ltd., Bristol, UK) for 24 h. Subsequently, the treated cell lysate was collected to determine the mRNA levels of the VDR gene as well as genes regulated by VDR. Total RNA was extracted and cDNA was synthesized as described above. Amplification was performed using specific primers, namely VDR-F: 5′-[…]-3′, VDR-R: 5′-AGTGGCGTCGGTTGTCCTT-3′, CYP27B1-F: 5′-[…]-3′, CYP27B1-R 5′-[…]-3′, CYP24A1-F: 5′-[…]-3′ and CYP24A1-R 5′-[…]-3′. The mRNA expression was normalized against β-actin and DMSO control-treated cells, respectively according to the following equation: ΔΔCt = ΔCt (gene)—ΔCt (DMSO). Experiments were performed independently in triplicate with triplicate real-time PCR.

VDR = assay: VDR-regulated gene expression by qRT-PCR, VDR; format: cell-based, human; details: 20 µM, 24 h, HEK293T/17, vs actin and 0.02% DMSO
Procedure: as §3

CYP24A1 = assay: VDR-regulated gene expression by qRT-PCR, CYP24A1; format: cell-based, human; details: 20 µM, 24 h, HEK293T/17, vs actin and 0.02% DMSO
Procedure: as §3

[4] = system: DENV infected monocytic U937 cells or hepatic Huh-7 cells; parameters: method as in PMID 22387385; details: U937 or Huh-7 cells; cited from earlier work
DENV 1 (strain 16007) = assay: Virus titer by plaque assay, DENV 1; format: cell-based, dengue virus; details: 10 μM, 24 h, HEK293T/17, MOI 10
Procedure: (§4) For viruses other than DENV 2, HEK293T/17 cells were infected with DENV 1 (strain 16007), DENV 3 (strain 16562), DENV 4 (strain 1036) and ZIKV (strain SV0010/15) at MOI 10 and with JEV (strain BJ1) at MOI 1. At 2 h.p.i., the virus was removed and the cells were incubated with 10 μM of VDR agonist (ZD-6) in complete medium for 24 h, after which the supernatant was collected, and the virus titer was determined by standard plaque assay. Experiments were performed independently triplicate.

JEV (strain BJ1) = assay: Virus titer by plaque assay, JEV; format: cell-based; details: 10 μM, 24 h, HEK293T/17, MOI 1
Procedure: as §4

DENV 3 (strain 16562) = assay: Virus titer by plaque assay, DENV 3; format: cell-based, dengue virus; details: 10 μM, 24 h, HEK293T/17, MOI 10
Procedure: as §4

ZIKV (strain SV0010/15) = assay: Virus titer by plaque assay, ZIKV; format: cell-based; details: 10 μM, 24 h, HEK293T/17, MOI 10
Procedure: as §4

DENV 4 (strain 1036) = assay: Virus titer by plaque assay, DENV 4; format: cell-based, dengue virus; details: 10 μM, 24 h, HEK293T/17, MOI 10
Procedure: as §4

[5] = system: DENV 1, 3, 4, JEV and ZIKV; assay: Activity against other flaviviruses, plaque assay (all viruses together); format: cell-based; details: 10 μM, 24 h, HEK293T/17, range over DENV 1, 3, 4, JEV, lowest for JEV and ZIKV
Procedure: as §4

[6] = 10 µM, 24 h, HEK293T/17, plaque assay
[7] = 20 μM, 24 h.p.i., HEK293T/17, plaque assay

| Structure (SMILES) | CC50 (HEK293T/17 cells) | level of infection (DENV 2 [1]; 10 µM, 24 h) | EC50 (DENV 2 [2]) | reduction of virus production (DENV 2 [2]; [6]) | further results |
| --- | --- | --- | --- | --- | --- |
| CSCCC(N)C(=O)Oc1ccc(C2N(c3ccc([N+](=O)[O-])cc3)C(=O)C3CCCN32)cc1.Cl (stereo not drawn) [ZD-3] | 394 µM | highly significant reductions | 7.47 µM |  |  |
| O=C1C2CCCN2C(c2ccco2)N1c1ccc([N+](=O)[O-])cc1 (stereo not drawn) [ZD-1] | 260 µM | highly significant reductions | 8.74 µM | 2-3 Log10 | level of infection, treatment at 6 and 12 h post-infection (DENV 2 [1]; 10 µM): significant reductions; level of infection in HepG2 cells (DENV 2 [3]): modest; virus titer, treatment at 6 and 12 h post-infection (DENV 2 [2]; 10 µM): significant reductions |
| C=C1/C(=C\C=C2/CCC[C@]3(C)[C@@H]([C@H](C)/C=C/C=C/C(O)(CC)CC)CC[C@@H]23)C[C@@H](O)C[C@@H]1O [EB1089, reference compound] |  |  |  |  | transcriptional level of CYP27B1 (CYP27B1): significantly up regulated; levels of infected cells (DENV 2 [1]; 20 μM, 24 h.p.i., HEK293T/17): significantly reduced; transcriptional level of VDR (VDR): significantly up regulated; reduction of viral production (DENV 2 [2]; [7]): approximately 2 Log10; viral yield (DENV 2 [2]; [7]): significantly reduced; transcriptional level of CYP24A1 (CYP24A1): significantly up regulated |
| COc1ccc(CC2N(c3ccc([N+](=O)[O-])cc3)C(=O)C3CCCN32)cc1OC (stereo not drawn) [ZD-5] | 439 µM | highly significant reductions | 8.46 µM | 2-3 Log10 | level of infection, treatment at 6 and 12 h post-infection (DENV 2 [1]; 10 µM): significant reductions; virus titer, treatment at 6 and 12 h post-infection (DENV 2 [2]; 10 µM): significant reductions |
| CSCCC(NC(=O)OC(C)(C)C)C(=O)Nc1ccc(C2N(c3ccc([N+](=O)[O-])cc3)C(=O)C3CCCN32)cc1 (stereo not drawn) [ZD-4] | 520 µM |  | 33.5 µM | over 1 Log10 | infection levels reduced by (DENV 2 [1]; 10 µM, 24 h, HEK293T/17): approximately 50% |
| COc1cc(C2N(c3ccc([N+](=O)[O-])cc3)C(=O)C3CCCN32)ccc1O (stereo not drawn) [ZD-2] | 314 µM | highly significant reductions | 11.8 µM | 2-3 Log10 |  |
| C=C1/C(=C\C=C2/CCC[C@]3(C)[C@@H]([C@H](C)CCCC(C)(C)O)CC[C@@H]23)C[C@@H](O)C[C@@H]1O [1,25(OH)2D3, 1,25-dihydroxyvitamin D3] |  |  |  |  | numbers of infected cells [4]: decreased numbers of infected cells |
| O=C1C2CCCN2C(c2ccc(O)cc2)N1c1ccc([N+](=O)[O-])cc1 (stereo not drawn) [ZD-6] | 277 µM | highly significant reductions | 11.3 µM | 2-3 Log10 | virus production, DENV 1 (DENV 1 (strain 16007)): significantly inhibited; virus production, JEV (JEV (strain BJ1)): significantly inhibited; virus production, DENV 3 (DENV 3 (strain 16562)): significantly inhibited; virus production, ZIKV (ZIKV (strain SV0010/15)): significantly inhibited; virus production, DENV 4 (DENV 4 (strain 1036)): significantly inhibited; magnitude of inhibition of virus production [5]: 1–3 Log10 |
| CSCCC(NC(=O)OC(C)(C)C)C(=O)Oc1ccc(C2N(c3ccc([N+](=O)[O-])cc3)C(=O)C3CCCN32)cc1 (stereo not drawn) [ZD-20] | 908 µM | no significant reduction | 152 µM |  | effect on DENV 2 titer in the supernatant (DENV 2 [2]; [6]): no significant effect |

— article PMC7331731, “Activity of vitamin D receptor agonists against dengue virus” (Scientific Reports, 2020)
